Test results taken from US11591350B2, “Modulators of cystic fibrosis transmembrane conductance regulator” (Vertex Pharmaceuticals Incorporated, priority 2019, dated 2023).
pEC50: −log10 of the molar value.

Biological target: CFTR (Homo sapiens, UniProt P13569)
Test: Membrane potential dye assay (FLIPR Tetra) of CFTR-mediated chloride transport in enteroid cells
Type: cell-based
Settings: human intestinal epithelial enteroid cells; test compound 18-24 hours; acute 10 μM forskolin and 300 nM Compound III
Text: Enteroid Cell Harvesting and Seeding
Membrane Potential Dye Assay

CFTR, sequence (P13569 with tags, fused parts or gaps DEL508-508): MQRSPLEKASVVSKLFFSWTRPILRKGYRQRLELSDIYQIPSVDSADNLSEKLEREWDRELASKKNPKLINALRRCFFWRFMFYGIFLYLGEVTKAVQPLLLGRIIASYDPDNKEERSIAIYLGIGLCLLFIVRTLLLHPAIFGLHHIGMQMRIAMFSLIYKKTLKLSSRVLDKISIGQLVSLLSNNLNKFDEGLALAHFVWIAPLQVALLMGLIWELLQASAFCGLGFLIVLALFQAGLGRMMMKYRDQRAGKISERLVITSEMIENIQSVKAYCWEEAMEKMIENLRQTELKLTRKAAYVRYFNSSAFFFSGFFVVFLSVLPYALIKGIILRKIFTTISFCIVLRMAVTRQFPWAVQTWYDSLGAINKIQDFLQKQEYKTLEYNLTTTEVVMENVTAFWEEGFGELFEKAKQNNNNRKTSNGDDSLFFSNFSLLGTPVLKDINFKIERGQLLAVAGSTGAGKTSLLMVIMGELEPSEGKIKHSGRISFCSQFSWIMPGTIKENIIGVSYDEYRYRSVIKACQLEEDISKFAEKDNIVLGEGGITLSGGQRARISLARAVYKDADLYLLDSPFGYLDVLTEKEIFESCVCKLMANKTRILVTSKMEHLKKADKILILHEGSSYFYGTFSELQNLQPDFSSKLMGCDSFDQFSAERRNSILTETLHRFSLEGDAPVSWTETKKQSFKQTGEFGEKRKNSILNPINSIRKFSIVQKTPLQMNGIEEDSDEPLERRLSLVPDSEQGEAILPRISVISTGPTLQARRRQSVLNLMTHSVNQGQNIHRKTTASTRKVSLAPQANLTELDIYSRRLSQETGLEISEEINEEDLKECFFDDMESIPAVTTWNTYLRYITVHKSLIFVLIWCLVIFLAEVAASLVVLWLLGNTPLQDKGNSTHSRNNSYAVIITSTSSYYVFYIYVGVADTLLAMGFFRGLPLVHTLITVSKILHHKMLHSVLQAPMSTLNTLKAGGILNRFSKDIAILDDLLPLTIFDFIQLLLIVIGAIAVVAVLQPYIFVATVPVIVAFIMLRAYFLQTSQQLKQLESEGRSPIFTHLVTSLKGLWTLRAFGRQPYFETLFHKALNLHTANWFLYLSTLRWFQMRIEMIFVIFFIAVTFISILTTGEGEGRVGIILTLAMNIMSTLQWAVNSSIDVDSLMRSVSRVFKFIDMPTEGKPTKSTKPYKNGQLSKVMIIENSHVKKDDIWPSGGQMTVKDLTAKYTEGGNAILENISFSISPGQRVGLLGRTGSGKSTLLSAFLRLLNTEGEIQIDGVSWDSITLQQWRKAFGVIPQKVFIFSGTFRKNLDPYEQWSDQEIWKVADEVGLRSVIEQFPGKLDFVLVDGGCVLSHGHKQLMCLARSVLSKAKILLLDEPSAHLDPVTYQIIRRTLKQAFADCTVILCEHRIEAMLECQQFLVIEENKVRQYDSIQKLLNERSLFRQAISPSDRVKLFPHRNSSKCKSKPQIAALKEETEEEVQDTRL

| SMILES | pEC50 |
| --- | --- |
| CC1(C)C[C@@H]2CCCNc3cccc(n3)S(=O)(=O)NC(=O)c3ccc(-n4ccc(OCCC5([Si](C)(C)C)CC5)n4)nc3N1C2 [(1-3)] | > 6.00 |
| CC1(C)C[C@@H]2CCCNc3cccc(n3)S(=O)(=O)NC(=O)c3ccc(-n4ccc(OC[Si](C)(C)C5(C(F)(F)F)CC5)n4)nc3N1C2 [Compound (1-1), (14S)-8-[3-({dimethyl[1-(trifluoromethyl)cyclopropyl]silyl}methoxy)-1H-pyrazol-1-yl]-12,12-dimethyl-2λ^6-thia-3,9,11,18,23-pentaazatetracyclo[17.3.1.111,14.05,10]tetracosa-1(22),5(10),6,8,19(23),20-hexaene-2,2,4-trione] | > 6.00 |
| CC1(C)C[C@@H]2CCCNc3cccc(n3)S(=O)(=O)NC(=O)c3ccc(-n4ccc(OC[Si](C)(C)C(C)(C)C)n4)nc3N1C2 [Compound (1-2), (14S)-8-{3-[(tert-butyldimethylsilyl)methoxy]-1H-pyrazol-1-yl}-12,12-dimethyl-2λ^6-thia-3,9,11,18,23-pentaazatetracyclo[17.3.1.111,14.05,10]tetracosa-1(23),5(10),6,8,19,21-hexaene-2,2,4-trione] | > 6.00 |
| CC(C)(C)CC[Si](C)(C)c1ccn(-c2ccc3c(n2)N2C[C@@H](CCCNc4cccc(n4)S(=O)(=O)NC3=O)CC2(C)C)n1 [Compound (1-4), (14S)-8-{3-[(3,3-dimethylbutyl)dimethylsilyl]-1H-pyrazol-1-yl}-12,12-dimethyl-2λ^6-thia-3,9,11,18,23-pentaazatetracyclo[17.3.1.111,14.05,10]tetracosa-1(23),5(10),6,8,19,21-hexaene-2,2,4-trione] | > 6.00 |
| CC1(C)C[C@@H]2CCCNc3cccc(n3)S(=O)(=O)NC(=O)c3ccc(-n4ccc(OCCC[Si](C)(C)C)n4)nc3N1C2 [Compound (1-6), (14S)-12,12-dimethyl-8-{3-[3-(trimethylsilyl)Propoxy]-1H-pyrazol-1-yl}-2λ^6-thia-3,9,11,18,23-pentaazatetracyclo[17.3.1.111,14.05,10]tetracosa-1(22),5(10),6,8,19(23),20-hexaene-2,2,4-trione] | > 6.00 |
| CC1(C)C[C@@H]2CCCNc3cccc(n3)S(=O)(=O)NC(=O)c3ccc(-n4ccc(OCC[Si](C)(C)C)n4)nc3N1C2 [Compound (1-7), (14S)-12,12-dimethyl-8-{3-[2-(trimethylsilyl)ethoxy]-1H-pyrazol-1-yl}-2λ^6-thia-3,9,11,18,23-pentaazatetracyclo[17.3.1.111,14.05,10]tetracosa-1(22),5(10),6,8,19(23),20-hexaene-2,2,4-trione] | > 6.00 |
| CC1(C)C[C@@H]2CCCNc3cccc(n3)S(=O)(=O)NC(=O)c3ccc(-n4ccc(OC[Si](C)(C)C)n4)nc3N1C2 [Compound (1-8), (14S)-12,12-dimethyl-8-{3-[(trimethylsilyl)methoxy]-1H-pyrazol-1-yl}-2λ^6-thia-3,9,11,18,23-pentaazatetracyclo[17.3.1.111,14.05,10]tetracosa-1(22),5(10),6,8,19(23),20-hexaene-2,2,4-trione] | > 6.00 |
| CC1(C)C[C@@H]2CCCNc3cccc(n3)S(=O)(=O)NC(=O)c3ccc(-n4ccc(O[CH2][Ge]([CH3])([CH3])[CH3])n4)nc3N1C2 [Compound (2-1), (14S)-12,12-dimethyl-8-{3-[(trimethylgermyl)methoxy]-1H-pyrazol-1-yl}-2λ^6-thia-3,9,11,18,23-pentaazatetracyclo[17.3.1.111,14.05,10]tetracosa-1(23),5(10),6,8,19,21-hexaene-2,2,4-trione] | > 6.00 |
